Measurements: patent publication US11926594B1, “6′-(3-bromophenyl)-2′-ethoxy-3,4′-bipyridine-3′-carbonitrile as an antioxidant compound” (KING FAISAL UNIVERSITY, priority 2023, dated 2024)

Assay: DPPH radical scavenging antioxidant test
Type: biochemical
Conditions: 517 nm; for Inhibition (radical scavenging inhibition): compound 3 μM in ethanol, 0.2 mL DPPH (0.75 mM), 30 minutes in the dark
Description: The antioxidant activity of 6′-(3-bromophenyl)-2′-ethoxy-3,4′-bipyridine-3′-carbonitrile was investigated by 2,2-diphenyl-1-picrylhydrazyl (DPPH) in vitro tests that employ vitamin C as the positive control.
The antioxidant properties of the 6′-(3-bromophenyl)-2′-ethoxy-3,4′-bipyridine-3′-carbonitrile compound were studied by adding 0.2 mL DPPH (0.75 mM)) to 6′-(3-bromophenyl)-2′-ethoxy-3,4′-bipyridine-3′-carbonitrile (3 μM) (4) in ethanol. After 30 minutes of incubation in the dark, the absorbance was read against a blank at 517 nm. Ascorbic acid (vitamin C) was used as standard antioxidants (positive control). A blank sample was prepared by 0.2 mL of DPPH in 3 mL ethanol. A negative control sample was run using ethanol instead of the sample. The radical scavenging inhibition was calculated using the following equation: […]

| SMILES | antioxidant potential (DPPH) compared to vitamin C (DPPH in vitro test, vitamin C as positive control) | Inhibition (radical scavenging inhibition) [%] |
| --- | --- | --- |
| CCOc1nc(-c2cccc(Br)c2)cc(-c2cccnc2)c1C#N [Product 4, 6′-(3-bromophenyl)-2′-ethoxy-3,4′-bipyridine-3′-carbonitrile] | high potential as an antioxidant compared to vitamin C | 48 |
| O=C1O[C@H]([C@@H](O)CO)C(O)=C1O [vit c, Ascorbic acid, reference compound] |  | 74 |
